Read-outs that look alike come from different tables or passages of the source.
How the values were obtained:
Format in all cases: in vivo
[1] = system: barnyardgrass (Echinochloa crus-galli); test: Test A pre-/postemergence greenhouse herbicide test, visual injury rating 0-100; conditions: for pest or weed control at 500 g/ha: 500 g ai/ha
How it was run: (§1)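 Greenhouse plants received compound either as directed soil spray at planting or as postemergence spray at the one- to two-leaf stage (2–10 cm). Evaluated after about 10 days by visual comparison with untreated controls.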

corn (Zea mays) [2] = test: as above; conditions: for plant injury at 500 g/ha: 500 g ai/ha
How it was run: as §1

[3] = system: giant foxtail (Setaria faberii); test: as above; conditions: for pest or weed control at 500 g/ha: 500 g ai/ha
How it was run: as §1

[4] = system: large (Lg) crabgrass (Digitaria sanguinalis); test: as above; conditions: for pest or weed control at 500 g/ha: 500 g ai/ha
How it was run: as §1

[5] = system: morningglory (Ipomoea spp.); test: as above; conditions: for pest or weed control at 500 g/ha: 500 g ai/ha
How it was run: as §1

[6] = system: pigweed (Amaranthus retroflexus); test: as above; conditions: for pest or weed control at 500 g/ha: 500 g ai/ha
How it was run: as §1

[7] = system: velvetleaf (Abutilon theophrasti); test: as above; conditions: for pest or weed control at 500 g/ha: 500 g ai/ha
How it was run: as §1

[8] = system: wheat (Triticum aestivum); test: as above; conditions: for plant injury at 500 g/ha: 500 g ai/ha
How it was run: as §1

[9] = system: Italian ryegrass (Lolium multiflorum); test: Test C pre-/postemergence greenhouse test, plant response rating 0-100; conditions: Lolium multiflorum; for pest or weed control at 62 g/ha: 62 g ai/ha; for pest or weed control at 125 g/ha: 125 g ai/ha; for pest or weed control at 250 g/ha: 250 g ai/ha; for pest or weed control at 500 g/ha: 500 g ai/ha
How it was run: (§2)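 Seeds were sown in a loam soil–sand blend and sprayed preemergence with test chemicals in a non-phytotoxic solvent mixture containing surfactant; postemergence plants in peat/vermiculite medium were treated at 2–18 cm (1- to 4-leaf stage). After 13 to 15 days in the greenhouse, injury was rated visually against untreated controls.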

corn (Zea mays) [10] = test: as above; conditions: Zea mays; for Corn plant response rating (crop injury, 0 = no effect, 100 = complete kill) at 250 g/ha: 250 g ai/ha; for Corn plant response rating (crop injury, 0 = no effect, 100 = complete kill) at 500 g/ha: 500 g ai/ha
How it was run: as §2

[11] = system: pigweed (Amaranthus retroflexus); test: as above; conditions: Amaranthus retroflexus; for pest or weed control at 62 g/ha: 62 g ai/ha; for pest or weed control at 125 g/ha: 125 g ai/ha; for pest or weed control at 250 g/ha: 250 g ai/ha; for pest or weed control at 500 g/ha: 500 g ai/ha
How it was run: as §2

[12] = system: ragweed (common ragweed, Ambrosia elatior); test: as above; conditions: Ambrosia artemisiifolia; for pest or weed control at 62 g/ha: 62 g ai/ha; for pest or weed control at 125 g/ha: 125 g ai/ha; for pest or weed control at 250 g/ha: 250 g ai/ha; for pest or weed control at 500 g/ha: 500 g ai/ha
How it was run: as §2

[13] = system: velvetleaf (Abutilon theophrasti); test: as above; conditions: Abutilon theophrasti; for pest or weed control at 62 g/ha: 62 g ai/ha; for pest or weed control at 125 g/ha: 125 g ai/ha; for pest or weed control at 250 g/ha: 250 g ai/ha; for pest or weed control at 500 g/ha: 500 g ai/ha
How it was run: as §2

[14] = post-emergence, Postemergence, read-out: Plant response rating (0 to 100), Ryegrass, Italian
[15] = post-emergence, Postemergence, scale 0 to 100
[16] = pre-emergence, Preemergence, read-out: Plant response rating, Ryegrass, Italian
[17] = post-emergence, Postemergence, read-out: Plant response rating (0 to 100), Pigweed
[18] = pre-emergence, Preemergence, read-out: Plant response rating, Pigweed
[19] = post-emergence, Postemergence, read-out: Plant response rating (0 to 100), Ragweed
[20] = pre-emergence, Preemergence, read-out: Plant response rating, Ragweed
[21] = post-emergence, Postemergence, read-out: Plant response rating (0 to 100), Velvetleaf
[22] = pre-emergence, Preemergence, read-out: Plant response rating, Velvetleaf

In the case of COCC(=O)n1cc(C(=O)c2ccccc2)c(-c2cc(Cl)cc(Cl)c2)n1 [Compound 16, 1-[4-benzoyl-3-(3,5-dichlorophenyl)-1H-pyrazol-1-yl]-2-methoxyethanone], the pest or weed control at 125 g/ha ([1]; Echinochloa crus-galli, post-emergence, 240 h, Postemergence, 125 g ai/ha, read-out: Plant response rating (0 to 100 scale), Barnyardgrass) is reported as 0%, the pest or weed control at 500 g/ha ([1]; Echinochloa crus-galli, post-emergence, 240 h, Postemergence, read-out: Plant response rating (0 to 100 scale), Barnyardgrass) is reported as 0% and the pest or weed control at 500 g/ha ([1]; Echinochloa crus-galli, pre-emergence, 240 h, Preemergence, read-out: Plant response rating (0 to 100 scale), Barnyardgrass) is reported as 0%. The “Barnyardgrass plant response rating (0 = no effect, 100 = complete control)” value ([1]; Preemergence, 125 g ai/ha) was 0, the “Corn plant response rating (0 = no effect, 100 = complete control)” value (corn (Zea mays) [2]; Preemergence, 125 g ai/ha) was 0 and the plant injury at 125 g/ha (corn (Zea mays) [2]; Zea mays, post-emergence, 240 h, Postemergence, 125 g ai/ha, read-out: Plant response rating (0 to 100 scale), Corn) was 0%. For the same molecule, the plant injury at 500 g/ha (corn (Zea mays) [2]; Zea mays, post-emergence, 240 h, Postemergence, read-out: Plant response rating (0 to 100 scale), Corn) was 0%, the plant injury at 500 g/ha (corn (Zea mays) [2]; Zea mays, pre-emergence, 240 h, Preemergence, read-out: Plant response rating (0 to 100 scale), Corn) was 0% and the “Foxtail, Giant plant response rating (0 = no effect, 100 = complete control)” value ([3]; Preemergence, 125 g ai/ha) was 0. For the same molecule, the pest or weed control at 125 g/ha ([3]; Setaria faberi, post-emergence, 240 h, Postemergence, 125 g ai/ha, read-out: Plant response rating (0 to 100 scale), Foxtail, Giant) was 0%, the pest or weed control at 500 g/ha ([3]; Setaria faberi, post-emergence, 240 h, Postemergence, read-out: Plant response rating (0 to 100 scale), Foxtail, Giant) was 0% and the pest or weed control at 500 g/ha ([3]; Setaria faberi, pre-emergence, 240 h, Preemergence, read-out: Plant response rating (0 to 100 scale), Foxtail, Giant) was 0%. For the same molecule, the pest or weed control at 125 g/ha ([4]; Digitaria sanguinalis, post-emergence, 240 h, Postemergence, 125 g ai/ha, read-out: Plant response rating (0 to 100 scale), Crabgrass, Large) was 0%, the pest or weed control at 500 g/ha ([4]; Digitaria sanguinalis, post-emergence, 240 h, Postemergence, read-out: Plant response rating (0 to 100 scale), Crabgrass, Large) was 0% and the pest or weed control at 500 g/ha ([4]; Digitaria sanguinalis, pre-emergence, 240 h, Preemergence, read-out: Plant response rating (0 to 100 scale), Crabgrass, Large) was 0%. For the same molecule, the “Crabgrass, Large plant response rating (0 = no effect, 100 = complete control)” value ([4]; Preemergence, 125 g ai/ha) was 0, the pest or weed control at 125 g/ha ([5]; Ipomoea, post-emergence, 240 h, Postemergence, 125 g ai/ha, read-out: Plant response rating (0 to 100 scale), Morningglory) was 0% and the pest or weed control at 500 g/ha ([5]; Ipomoea, post-emergence, 240 h, Postemergence, read-out: Plant response rating (0 to 100 scale), Morningglory) was 0%. The pest or weed control at 500 g/ha ([5]; Ipomoea, pre-emergence, 240 h, Preemergence, read-out: Plant response rating (0 to 100 scale), Morningglory) was 0%, the “Morningglory plant response rating (0 = no effect, 100 = complete control)” value ([5]; Preemergence, 125 g ai/ha) was 0 and the pest or weed control at 125 g/ha ([6]; Amaranthus retroflexus, post-emergence, 240 h, Postemergence, 125 g ai/ha, read-out: Plant response rating (0 to 100 scale), Pigweed) was 80%. The pest or weed control at 500 g/ha ([6]; Amaranthus retroflexus, post-emergence, 240 h, Postemergence, read-out: Plant response rating (0 to 100 scale), Pigweed) was 100%, the pest or weed control at 500 g/ha ([6]; Amaranthus retroflexus, pre-emergence, 240 h, Preemergence, read-out: Plant response rating (0 to 100 scale), Pigweed) was 100% and the “Pigweed plant response rating (0 = no effect, 100 = complete control)” value ([6]; Preemergence, 125 g ai/ha) was 60. It also gave a pest or weed control at 125 g/ha ([7]; Abutilon theophrasti, post-emergence, 240 h, Postemergence, 125 g ai/ha, read-out: Plant response rating (0 to 100 scale), Velvetleaf) of 80%, a pest or weed control at 500 g/ha ([7]; Abutilon theophrasti, post-emergence, 240 h, Postemergence, read-out: Plant response rating (0 to 100 scale), Velvetleaf) of 90% and a pest or weed control at 500 g/ha ([7]; Abutilon theophrasti, pre-emergence, 240 h, Preemergence, read-out: Plant response rating (0 to 100 scale), Velvetleaf) of 80%. For the same molecule, the “Velvetleaf plant response rating (0 = no effect, 100 = complete control)” value ([7]; Preemergence, 125 g ai/ha) was 20, the “Wheat plant response rating (0 = no effect, 100 = complete control)” value ([8]; Preemergence, 125 g ai/ha) was 0 and the plant injury at 125 g/ha ([8]; Triticum aestivum, post-emergence, 240 h, Postemergence, 125 g ai/ha, read-out: Plant response rating (0 to 100 scale), Wheat) was 0%. It also gave a plant injury at 500 g/ha ([8]; Triticum aestivum, post-emergence, 240 h, Postemergence, read-out: Plant response rating (0 to 100 scale), Wheat) of 0%, a plant injury at 500 g/ha ([8]; Triticum aestivum, pre-emergence, 240 h, Preemergence, read-out: Plant response rating (0 to 100 scale), Wheat) of 0% and a pest or weed control at 62 g/ha [9, 14] of 0%. The pest or weed control at 125 g/ha [9, 14] was 0%, the pest or weed control at 250 g/ha [9, 15] was 0% and the pest or weed control at 500 g/ha [9, 15] was 0%. It also gave a pest or weed control at 62 g/ha [9, 16] of 0%, a pest or weed control at 125 g/ha [9, 16] of 0% and a pest or weed control at 250 g/ha ([9]; pre-emergence, Preemergence) of 0%. The pest or weed control at 500 g/ha ([9]; pre-emergence, Preemergence) was 0%, the plant injury at 62 g/ha (corn (Zea mays) [10]; post-emergence, Postemergence, 62 g ai/ha) was 0% and the plant injury at 125 g/ha (corn (Zea mays) [10]; post-emergence, Postemergence, 125 g ai/ha) was 0%. For the same molecule, the Corn plant response rating (crop injury, 0 = no effect, 100 = complete kill) at 250 g/ha (corn (Zea mays) [10]; [15]) was 0%, the Corn plant response rating (crop injury, 0 = no effect, 100 = complete kill) at 500 g/ha (corn (Zea mays) [10]; [15]) was 0% and the Corn plant response rating (crop injury, 0 = no effect, 100 = complete kill) at 62 g/ha (corn (Zea mays) [10]; pre-emergence, Preemergence, 62 g ai/ha) was 0%. It also gave a Corn plant response rating (crop injury, 0 = no effect, 100 = complete kill) at 125 g/ha (corn (Zea mays) [10]; pre-emergence, Preemergence, 125 g ai/ha) of 0%, a Corn plant response rating (crop injury, 0 = no effect, 100 = complete kill) at 250 g/ha (corn (Zea mays) [10]; pre-emergence, Preemergence) of 0% and a Corn plant response rating (crop injury, 0 = no effect, 100 = complete kill) at 500 g/ha (corn (Zea mays) [10]; pre-emergence, Preemergence) of 0%. The pest or weed control at 62 g/ha [11, 17] was 85%, the pest or weed control at 125 g/ha [11, 17] was 85% and the pest or weed control at 250 g/ha [11, 15] was 100%. For the same molecule, the pest or weed control at 500 g/ha [11, 15] was 100%, the pest or weed control at 62 g/ha [11, 18] was 85% and the pest or weed control at 125 g/ha [11, 18] was 85%. It also gave a pest or weed control at 250 g/ha ([11]; pre-emergence, Preemergence) of 100%, a pest or weed control at 500 g/ha ([11]; pre-emergence, Preemergence) of 100% and a pest or weed control at 62 g/ha [12, 19] of 60%. It also gave a pest or weed control at 125 g/ha [12, 19] of 85%, a pest or weed control at 250 g/ha [12, 15] of 85% and a pest or weed control at 500 g/ha [12, 15] of 95%. For the same molecule, the pest or weed control at 62 g/ha [12, 20] was 55%, the pest or weed control at 125 g/ha [12, 20] was 85% and the pest or weed control at 250 g/ha ([12]; pre-emergence, Preemergence) was 85%. The pest or weed control at 500 g/ha ([12]; pre-emergence, Preemergence) was 95%, the pest or weed control at 62 g/ha [13, 21] was 85% and the pest or weed control at 125 g/ha [13, 21] was 90%. For the same molecule, the pest or weed control at 250 g/ha [13, 15] was 90%, the pest or weed control at 500 g/ha [13, 15] was 90% and the pest or weed control at 62 g/ha [13, 22] was 65%. The pest or weed control at 125 g/ha [13, 22] was 100%, the pest or weed control at 250 g/ha ([13]; pre-emergence, Preemergence) was 100% and the pest or weed control at 500 g/ha ([13]; pre-emergence, Preemergence) was 100%.

Source: patent publication US10167262B2, “Herbicidal substituted 3-arylpyrazoles” (FMC CORPORATION, priority 2014, dated 2019)
